These results are taken from ChEMBL document CHEMBL1127960, “Latent leishmanicidal activity of quinazolinones and 1,2,4-triazoloquinazolinones” (1994).

The structures appear in SMILES notation.

For this assay, the system named is Leishmania donovani. As to the kind of experiment: In vitro leishmanicidal activity against promastigotes of Leishmania donovani at 100 ug/ml concentration. The assay is classed as functional.

In the case of `CCn1c(=O)c2cc(OC)ccc2n2c(CCl)nnc12`, the “Leishmanicidal activity (% promastigotes killed)” value amounted to 67%.
As to `Cn1c(=O)c2ccc(Cl)cc2n2c(CSC3=NCCN3)nnc12`, the “Leishmanicidal activity (% promastigotes killed)” value was 35%.
`Cn1c(=O)c2ccc(Cl)cc2n2c(CCl)nnc12`: the “Leishmanicidal activity (% promastigotes killed)” value came out at 95%.
Under `Cn1c(=O)c2ccc(Cl)cc2n2c(S)nnc12` stands 55%; under `CCn1c(=O)c2cc(OC)ccc2n2cnnc12`, 39%; under `CCn1c(=O)c2ccc(Cl)cc2n2c(C)nnc12`, 49%.
Consider `CCOC(=O)c1c(SC)nn(-c2nc3cc(Cl)ccc3c(=O)n2C)c1N`, for which the “Leishmanicidal activity (% promastigotes killed)” value amounted to 0%.
For `CCn1c(=O)c2ccc(Cl)cc2n2c(CCl)nnc12`, the “Leishmanicidal activity (% promastigotes killed)” value turned out to be 70%.
Take `CCOC(=O)c1c(SC)nn(-c2nc3cc(Cl)ccc3c(=O)n2CC)c1N`: the “Leishmanicidal activity (% promastigotes killed)” value is 0%.
Under `Cn1c(=O)c2ccc(Cl)cc2n2cnnc12` stands 81%.
Turning to `CCn1c(=O)c2cc(OC)ccc2n2c(S)nnc12`, the “Leishmanicidal activity (% promastigotes killed)” value is listed as 80%.
Take `CCn1c(=O)c2ccc(Cl)cc2n2c(CSC3=NCCN3)nnc12`: the “Leishmanicidal activity (% promastigotes killed)” value was 24%.
In the case of `CCn1c(=S)[nH]c2ccc(OC)cc2c1=O`, the “Leishmanicidal activity (% promastigotes killed)” value stood at 12%.
On to `CCn1c(SCc2nnc3n(CC)c(=O)c4ccc(Cl)cc4n23)nc2ccc(OC)cc2c1=O`, for which the “Leishmanicidal activity (% promastigotes killed)” value was found to be 0%.
As to `CSc1nc2cc(Cl)ccc2c(=O)n1C`, the “Leishmanicidal activity (% promastigotes killed)” value came to 0%.
Turning to `CCn1c(=O)c2ccc(Cl)cc2n2cnnc12`, the “Leishmanicidal activity (% promastigotes killed)” value stood at 19%.
With `CCn1c(=O)c2cc(OC)ccc2n2c(C)nnc12`, the “Leishmanicidal activity (% promastigotes killed)” value worked out at 42%.
In the case of `CCn1c(SCc2nnc3n(C)c(=O)c4ccc(Cl)cc4n23)nc2ccc(OC)cc2c1=O`, the “Leishmanicidal activity (% promastigotes killed)” value was found to be 10%.
As to `CCn1c(=O)c2ccc(Cl)cc2n2c(S)nnc12`, the “Leishmanicidal activity (% promastigotes killed)” value came out at 30%.
As to `CCn1c(NN)nc2ccc(OC)cc2c1=O`, the “Leishmanicidal activity (% promastigotes killed)” value is on record as 0%.
